This is an account of results in PubChem BioAssay (NCI).

Among the test systems are ACHN renal; HCT-15 colon; MOLT-4 leukemia; NCI-H23 lung; OVCAR-5 ovarian; RPMI-8226 leukemia; SF-539 CNS; DLD-1 colon; KM20L2 colon; LXFL 529 NSCLC; M19-MEL melanoma; SNB-78 CNS; XF 498 CNS.
Holding throughout (assay): NCI anticancer screen, dose series, 48 h

SMILES strings stand for the structures.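 Interpolation was linear, between the two tested concentrations surrounding the appropriate level; five concentrations were tested over 48 hours in 96-well plates. TGI: total growth inhibition.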

Consider `COC(=O)[C@@H]1C[C@H]([Se]c2ccccc2)CN1C(=O)OCc1ccccc1`, for which the TGI was more than 100 µM with ACHN renal; more than 100 µM in the assay with HCT-15 colon; 66.8 µM in the assay on MOLT-4 leukemia; 99.2 µM in the assay with NCI-H23 lung; more than 100 µM in the assay with OVCAR-5 ovarian; 71.8 µM in the assay on RPMI-8226 leukemia. Besides, the TGI with SF-539 CNS was more than 100 µM.
For `COc1cc(/C=C2/C(=O)N(C(=O)c3ccc(Cl)cc3)N=C2C)cc(OC)c1OC`, the TGI with ACHN renal, in the assay with DLD-1 colon, with HCT-15 colon, in the assay on KM20L2 colon, in the assay on LXFL 529 NSCLC and in the assay with M19-MEL melanoma was more than 100 µM throughout. The TGI in the assay on MOLT-4 leukemia, in the assay on NCI-H23 lung, in the assay on OVCAR-5 ovarian, with RPMI-8226 leukemia, in the assay on SF-539 CNS and with SNB-78 CNS was more than 100 µM in each case. The same molecule had a TGI in the assay on XF 498 CNS of more than 100 µM.
Take `Cc1ccc(S(=O)(=O)Oc2nc3ccccc3nc2N(S(=O)(=O)c2ccc(C)cc2)S(=O)(=O)c2ccc(C)cc2)cc1`: the TGI in the assay with ACHN renal, in the assay on HCT-15 colon, in the assay on MOLT-4 leukemia, with NCI-H23 lung, with OVCAR-5 ovarian and with RPMI-8226 leukemia was more than 100 µM throughout. In addition, the TGI with SF-539 CNS was more than 100 µM.
In the case of `O=C1NC(N2CCCC(CO)C2)=N/C1=C\c1ccc(Cl)cc1` (stereo not drawn), the TGI in the assay with ACHN renal, in the assay on HCT-15 colon, in the assay on MOLT-4 leukemia, in the assay on NCI-H23 lung, with OVCAR-5 ovarian and in the assay on RPMI-8226 leukemia was more than 100 µM in each case. Also, in the assay on SF-539 CNS, the TGI is more than 100 µM.
Consider `COc1cc2c(cc1OC)C(N)CC2=O` (stereo not drawn), for which the TGI in the assay on ACHN renal, with HCT-15 colon, in the assay with MOLT-4 leukemia, with NCI-H23 lung, in the assay with OVCAR-5 ovarian and in the assay on RPMI-8226 leukemia was more than 100 µM each time. Also, the TGI in the assay on SF-539 CNS is more than 100 µM.
For `COc1cc2cc(C(=O)N3CC(CCl)c4ccccc43)[nH]c2c(OC)c1OC` (stereo not drawn), the TGI in the assay with ACHN renal, in the assay with HCT-15 colon, in the assay with MOLT-4 leukemia, with NCI-H23 lung, in the assay with OVCAR-5 ovarian and in the assay with RPMI-8226 leukemia was more than 100 µM each time. The molecule further came in with a TGI with SF-539 CNS of more than 100 µM.
Turning to `NC(N)=NCCCC(NC(=O)OCCCCCCn1ccc(N)nc1=O)C(=O)O` (stereo not drawn), the TGI with ACHN renal, in the assay with HCT-15 colon, in the assay with MOLT-4 leukemia, in the assay on NCI-H23 lung, in the assay with OVCAR-5 ovarian and in the assay with RPMI-8226 leukemia was more than 100 µM throughout. In the assay on SF-539 CNS, this molecule gave a TGI of more than 100 µM.
Regarding `COc1c(O)c2c(=O)cc(OC)c3c4c(OC)cc(=O)c5c(O)c(OC)c6c(c(c1C(C(C)=O)C6C(C)O)c23)c54` (stereo not drawn), the TGI came out at 1.09 µM with ACHN renal; 2.25 µM in the assay on HCT-15 colon; 0.443 µM in the assay on MOLT-4 leukemia; 1.33 µM with NCI-H23 lung; 1.28 µM in the assay on OVCAR-5 ovarian; 1.28 µM with RPMI-8226 leukemia. The TGI with SF-539 CNS worked out at 1.87 µM.
`C/C=C/C(=O)N1C(=O)OC[C@@H]1c1ccccc1`: the TGI turned out to be 33.5 µM with ACHN renal; 53.8 µM with HCT-15 colon; 47.3 µM with MOLT-4 leukemia; 32.8 µM in the assay on NCI-H23 lung; 31.7 µM in the assay with OVCAR-5 ovarian; 50 µM in the assay on RPMI-8226 leukemia. For the same molecule, the TGI with SF-539 CNS worked out at 38.5 µM.
As for `COC(=O)[C@@H]1C[C@@H]2c3ccccc3N(S(=O)(=O)c3ccccc3)[C@@H]2N1C(=O)OC`, the TGI in the assay on ACHN renal, in the assay with HCT-15 colon, with MOLT-4 leukemia, in the assay with NCI-H23 lung, in the assay on OVCAR-5 ovarian and with RPMI-8226 leukemia was more than 100 µM each time. The TGI in the assay on SF-539 CNS was more than 100 µM.
For `O=[N+]([O-])/C(C(Cl)=C(Cl)Cl)=C(/Sc1ccccc1)N1CCCCC1`, the TGI in the assay on ACHN renal, with HCT-15 colon, with MOLT-4 leukemia, in the assay with NCI-H23 lung, in the assay with OVCAR-5 ovarian and in the assay with RPMI-8226 leukemia was more than 100 µM each time. The molecule also had a TGI in the assay with SF-539 CNS of more than 100 µM.
For the molecule `COc1cc2c(cc1OCc1ccccc1)NC(=S)[C@@H]1CCCN1C2=S`, the TGI in the assay on ACHN renal, in the assay with HCT-15 colon, in the assay with MOLT-4 leukemia, in the assay on NCI-H23 lung, with OVCAR-5 ovarian and in the assay on RPMI-8226 leukemia was more than 100 µM each time. Moreover, the TGI in the assay on SF-539 CNS was more than 100 µM.
In the case of `Cc1ccc(/C=C/C(=O)c2cc(CN(C)C)c(O)c(CN(C)C)c2)cc1`, the TGI in the assay with ACHN renal is 90.8 µM; in the assay with HCT-15 colon, 45.4 µM; in the assay with MOLT-4 leukemia, 57.2 µM; in the assay with NCI-H23 lung it was more than 100 µM; in the assay with OVCAR-5 ovarian it was more than 100 µM; in the assay with RPMI-8226 leukemia, 48.3 µM. Also, the TGI in the assay on SF-539 CNS came to 34.9 µM.
For the molecule `COc1ccc(/C=C2\N=C(NN)N=C2Cl)cc1`, the TGI in the assay on ACHN renal, in the assay with HCT-15 colon, with MOLT-4 leukemia, in the assay with NCI-H23 lung, in the assay with OVCAR-5 ovarian and in the assay with RPMI-8226 leukemia was more than 100 µM throughout. For the same molecule, in the assay with SF-539 CNS, the TGI was more than 100 µM.
Regarding `CC1OC(OC2C(O)COC(OC3C(C)OC(OC4C(OC(=O)[C@]56CCC(C)(C)C[C@@H]5C5=CCC7[C@@]8(C)C[C@H](O)[C@H](OC9OC(CO)C(O)C(OC%10OC(CO)C(O)C(O)C%10O)C9O)[C@@](C)(CO)[C@@H]8CC[C@@]7(C)[C@]5(C)CC6)OCC(O)C4O)C(O)C3O)C2O)C(O)C(O)C1O` (stereo partly drawn), the TGI with ACHN renal amounted to 34.5 µM; with HCT-15 colon it was 38.7 µM; with MOLT-4 leukemia, 36.5 µM; in the assay with NCI-H23 lung it was 31 µM; in the assay with OVCAR-5 ovarian it was 27 µM; with RPMI-8226 leukemia, 51.8 µM. In the assay with SF-539 CNS, this molecule registered a TGI of 34.4 µM.
Take `CCOC(=O)c1cnc(-n2[nH]c3c(c2=O)CCCC3)[nH]c1=O`: the TGI with ACHN renal, in the assay on HCT-15 colon, with MOLT-4 leukemia, in the assay with NCI-H23 lung, in the assay with OVCAR-5 ovarian and in the assay on RPMI-8226 leukemia was more than 100 µM each time. In the assay with SF-539 CNS, this molecule came in with a TGI of more than 100 µM.
